Where a SMILES comes first, the peptide text is derived from it. Bridges are numbered along the chain shown (N, C = ends). [ ]: non-standard residue; d: D form. The star is where a group is joined. hPhe(3-Cl-4-CF3) = N[C@@H](CCc1ccc(C(F)(F)F)c(Cl)c1)C(=O)O; NPrPhe(4-CF3) = CCCN[C@@H](Cc1ccc(C(F)(F)F)cc1)C(=O)O; NMeAbu(4,4,4-F3) = CN[C@@H](CC(F)(F)F)C(=O)O; NMeGly(cPent) = CN[C@H](C(=O)O)C1CCCC1; Pro(4,4-F2) = O=C(O)[C@@H]1CC(F)(F)CN1; NMeD = CN[C@@H](CC(=O)O)C(=O)O; Morpholide = C1CN(*)CCO1; Ac5c = NC1(C(=O)O)CCCC1; Sar = CNCC(=O)O
Assays:
[1] = target: GDP-bound NRAS wild-type protein (Homo sapiens, UniProt P01111); test: Binding to NRAS by surface plasmon resonance (SPR), Single Cycle Kinetics; conditions: for NRAS/KRAS (ratio of KD value with respect to NRAS to KD value with respect to KRAS) / NRAS/KRAS (ratio of KD value for NRAS to KD value for KRAS): GDP-bound NRAS wild-type vs GDP-bound KRAS wild-type
Sequence of GDP-bound NRAS wild-type protein (P01111 whole entry): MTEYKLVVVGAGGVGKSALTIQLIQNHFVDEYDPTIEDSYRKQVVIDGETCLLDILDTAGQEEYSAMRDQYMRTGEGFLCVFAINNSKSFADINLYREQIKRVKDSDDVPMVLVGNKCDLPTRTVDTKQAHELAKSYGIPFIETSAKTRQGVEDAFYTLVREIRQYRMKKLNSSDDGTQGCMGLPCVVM

[2] = target: GDP-bound HRAS wild-type protein (Homo sapiens, UniProt P01112); test: Binding to HRAS by surface plasmon resonance (SPR), Single Cycle Kinetics; conditions: for HRAS/KRAS (ratio of KD value with respect to HRAS to KD value with respect to KRAS) / HRAS/KRAS (ratio of KD value for HRAS to KD value for KRAS): GDP-bound HRAS wild-type vs GDP-bound KRAS wild-type
Sequence of GDP-bound HRAS wild-type protein (P01112 whole entry): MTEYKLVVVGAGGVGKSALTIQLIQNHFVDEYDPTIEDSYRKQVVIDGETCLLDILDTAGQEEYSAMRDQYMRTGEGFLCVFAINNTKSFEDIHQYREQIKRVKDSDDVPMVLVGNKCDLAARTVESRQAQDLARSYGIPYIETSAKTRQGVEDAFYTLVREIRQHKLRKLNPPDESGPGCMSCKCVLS

## CCO[C@@H]1C[C@H]2C(=O)NC3(CCC3)C(=O)N(C)[C@@H](C3CCCC3)C(=O)N(C)[C@H](C(=O)N3CCOCC3)CC(=O)N(C)[C@@H](CC(C)C)C(=O)N[C@@H]([C@@H](C)CC)C(=O)N(C)CC(=O)N(C)[C@H]3CCCCCN(C3=O)[C@@H](Cc3ccc(F)c(F)c3)C(=O)N(C)CC(=O)N[C@@H](CCc3cc(F)c(C(F)(F)F)c(F)c3)C(=O)N2C1 [PP0917]
[1]; SPR
  NRAS/KRAS (ratio of KD value with respect to NRAS to KD value with respect to KRAS): B (a compound having 3 or more and less than 10 is denoted as B)
[2]; SPR
  HRAS/KRAS (ratio of KD value with respect to HRAS to KD value with respect to KRAS): B (a compound having 3 or more and less than 10 is denoted as B)

## C#CC[C@H]1C(=O)N[C@@H]([C@@H](C)CC)C(=O)N(C)CC(=O)N(C)[C@H]2CCCCN(C2=O)[C@@H](Cc2ccc(C(F)(F)F)cc2)C(=O)N(C)CC(=O)N[C@@H](CCc2cc(F)c(C(F)(F)F)c(F)c2)C(=O)N2C[C@H](OCC)C[C@H]2C(=O)NC2(CCC2)C(=O)N(C)[C@@H](C2CCCC2)C(=O)N(C)[C@H](C(=O)N(C)C)CC(=O)N1C [PP0696]
[1]; KD ratio NRAS/KRAS, SPR
  NRAS/KRAS (ratio of KD value with respect to GDP-bound NRAS wild-type protein to KD value with respect to KRAS): B (a compound having 3 or more and less than 10 is denoted as B)
[2]; KD ratio HRAS/KRAS, SPR
  HRAS/KRAS (ratio of KD value with respect to GDP-bound HRAS wild-type protein to KD value with respect to KRAS): B (a compound having 3 or more and less than 10 is denoted as B)

## CCC[C@H]1C(=O)N[C@@H]([C@@H](C)CC)C(=O)N(C)CC(=O)N(C)[C@H]2C/C=C\CCN(C2=O)[C@@H](Cc2ccc(C(F)(F)F)cc2)C(=O)N(C)CC(=O)N[C@@H](CCc2cc(F)c(C(F)(F)F)c(F)c2)C(=O)N2C[C@H](OCC)C[C@H]2C(=O)NC2(CC(C)(C)C2)C(=O)N(C)[C@@H](C2CCCC2)C(=O)N(C)[C@H](C(=O)N(C)CC)CC(=O)N1C [PP1646]
[1]; SPR
  NRAS/KRAS (ratio of KD value for NRAS to KD value for KRAS): A (a compound having 10 or more and less than 20 is denoted as A)
[2]; SPR
  HRAS/KRAS (ratio of KD value for HRAS to KD value for KRAS): A (a compound having 10 or more and less than 20 is denoted as A)

## CCCN1C(=O)CN(C)C(=O)CN(C)C(=O)[C@H]([C@@H](C)CC)NC(=O)[C@H](CC(F)(F)F)N(C)C(=O)C[C@@H](C(=O)N2CCOCC2)N(C)C(=O)[C@H](C2CCCC2)N(C)C(=O)C2(CCCC2)NC(=O)[C@@H]2CC(F)(F)CN2C(=O)[C@H](CCc2ccc(C(F)(F)F)c(Cl)c2)NC(=O)CN(C)C(=O)[C@@H]1Cc1ccc(C(F)(F)F)cc1 [PP0199] ([NMeAbu(4,4,4-F3)]I[Sar][Sar][NPrPhe(4-CF3)][Sar][hPhe(3-Cl-4-CF3)][Pro(4,4-F2)][Ac5c][NMeGly(cPent)][NMeD]-Morpholide; lactam N-11)
[1]; KD ratio NRAS/KRAS, SPR
  NRAS/KRAS (ratio of KD for GDP-bound NRAS wild-type to KD for KRAS): B (a compound having 3 or more and less than 10 is denoted as B)
[2]; KD ratio HRAS/KRAS, SPR
  HRAS/KRAS (ratio of KD for GDP-bound HRAS wild-type to KD for KRAS): C (A compound having a KD ratio of 0.1 or more and less than 3 is denoted as C)

## CC[C@H](C)[C@@H]1NC(=O)[C@H](CC(C)C)N(C)C(=O)C[C@@H](C(=O)N(CC)CC)N(C)C(=O)[C@H](C2CCCC2)N(C)C(=O)C2(CCC2)NC(=O)[C@@H]2C[C@H](C)CN2C(=O)[C@H](CCc2ccc(C(F)(F)F)c(OC)c2)NC(=O)CN(C)C(=O)[C@H](Cc2ccc(C)cc2)N2CC/C=C\C[C@@H](C2=O)N(C)C(=O)CN(C)C1=O [PP1885]
[1]; SPR
  NRAS/KRAS (ratio of KD value for NRAS to KD value for KRAS): AA (a compound having 20 or more is denoted as AA)
[2]; SPR
  HRAS/KRAS (ratio of KD value for HRAS to KD value for KRAS): A (a compound having 10 or more and less than 20 is denoted as A)

## CC[C@H](C)[C@@H]1NC(=O)[C@H](CC)N(C)C(=O)C[C@@H](C(=O)N(C)C)N(C)C(=O)[C@H](C2CCCC2)N(C)C(=O)C2(CCC2)NC(=O)[C@@H]2C[C@@H](F)CN2C(=O)[C@H](CCc2cc(F)c(C(F)(F)F)c(F)c2)NC(=O)CN(C)C(=O)[C@H](Cc2ccc(C(F)(F)F)cc2)N2CC/C=C\C[C@@H](C2=O)N(C)C(=O)CN(C)C1=O [PP1131]
[1]; SPR
  NRAS/KRAS (ratio of KD value with respect to NRAS to KD value with respect to KRAS): A (a compound having 10 or more and less than 20 is denoted as A)
[2]; SPR
  HRAS/KRAS (ratio of KD value with respect to HRAS to KD value with respect to KRAS): B (a compound having 3 or more and less than 10 is denoted as B)

## CCC[C@H]1C(=O)N[C@@H]([C@@H](C)CC)C(=O)N(C)CC(=O)N(C)[C@H]2C/C=C\CCN(C2=O)[C@@H](Cc2ccc(C(F)(F)F)cc2)C(=O)N(C)CC(=O)N[C@@H](CCc2ccc(CC)c(Cl)c2)C(=O)N2C[C@H](OCC)C[C@H]2C(=O)NC2(CC(C)(C)C2)C(=O)N(C)[C@@H](C(CC)CC)C(=O)N(C)[C@H](C(=O)N(C)C)CC(=O)N1C [PP2777]
[1]; KD ratio NRAS/KRAS, class symbols
  NRAS/KRAS (ratio of KD value with respect to GDP-bound NRAS wild-type protein to KD value with respect to KRAS): AA (a compound having 20 or more is denoted as AA)
[2]; KD ratio HRAS/KRAS, class symbols
  HRAS/KRAS (ratio of KD value with respect to GDP-bound HRAS wild-type protein to KD value with respect to KRAS): A (a compound having 10 or more and less than 20 is denoted as A)

## CCOC[C@H]1C(=O)N[C@@H]([C@@H](C)CC)C(=O)N(C)CC(=O)N(C)[C@H]2C/C=C\CCN(C2=O)[C@@H](Cc2ccc(C(F)(F)F)cc2)C(=O)N(C)CC(=O)N[C@@H](CCc2cc(F)c(C(F)(F)F)c(F)c2)C(=O)N2C[C@H](OCC)C[C@H]2C(=O)NC2(CC(C)(C)C2)C(=O)N(C)[C@@H](C2CCCC2)C(=O)N(C)[C@H](C(=O)N(C)CC)CC(=O)N1C [PP2032]
[1]; SPR
  NRAS/KRAS (ratio of KD value for NRAS to KD value for KRAS): A (a compound having 10 or more and less than 20 is denoted as A)
[2]; SPR
  HRAS/KRAS (ratio of KD value for HRAS to KD value for KRAS): B (a compound having 3 or more and less than 10 is denoted as B)
